pIC50: −log10 of the molar value.
Molecular target: T1, menin/MLL binding (biotinylated wild-type or mutated menin and MLL-AF9 fusion protein) (Homo sapiens, UniProt O00255)
T1 construct: biotinylated (1) wild-type menin or (2) mutated menin (described in Nature (2012) Vol. 482, pp. 542-548); fused on or other part: Biotin attached chemically (Sulfo-NHS-Biotin); no fused second protein is printed for menin
T1 sequence (O00255 1-459 limits assumed): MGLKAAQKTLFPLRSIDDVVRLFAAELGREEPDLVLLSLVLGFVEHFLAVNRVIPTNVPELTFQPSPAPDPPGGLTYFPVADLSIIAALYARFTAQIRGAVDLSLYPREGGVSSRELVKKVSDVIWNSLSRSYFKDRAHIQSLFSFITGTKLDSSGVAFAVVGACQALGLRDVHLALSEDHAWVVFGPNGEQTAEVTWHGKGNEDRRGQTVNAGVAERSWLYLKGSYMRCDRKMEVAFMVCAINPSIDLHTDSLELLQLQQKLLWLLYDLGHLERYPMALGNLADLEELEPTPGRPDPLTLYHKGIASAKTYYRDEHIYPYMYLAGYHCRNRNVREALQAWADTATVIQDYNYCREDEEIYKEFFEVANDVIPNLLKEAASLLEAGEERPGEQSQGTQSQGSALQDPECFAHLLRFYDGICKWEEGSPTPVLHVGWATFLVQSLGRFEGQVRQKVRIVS
Assay: Assay 1 (Binding Assay): AlphaLISA menin/MLL binding
Conditions: 5 nM biotinylated menin, MLL-AF9-FLAG lysate
Procedure: Potencies of inhibitor compounds against menin/MLL binding were assessed by AlphaLISA assay using biotinylated (1) wild-type menin or (2) mutated menin (described in Nature (2012) Vol. 482, pp. 542-548) and MLL-AF9 fusion protein bearing a FLAG epitope at its C-terminus. Menin proteins were expressed in E. coli and covalently modified with biotin using EZ-Link™ Sulfo-NHS-Biotin (ThermoFisher Cat. No. 21217) according to manufacturer's protocol. MLL1-1,396 fused to AF91-92 and the C-terminal FLAG peptide was expressed in HEK293 cells and used as a lysate cleared at 21,000×g for 10 min.
Compounds (2 μL of solutions in DMSO) were dispensed in white 96-well half-area plates (Corning Cat. No. 3693) and incubated for 30 min at RT with 5 nM biotinylated menin and appropriate amount of MLL-AF9-FLAG lysate in 40 μL of 50 mM Tris-HCl buffer pH 7.4 containing 5% (v/v) DMSO, 50 mM NaCl, 0.01% (w/v) bovine serum albumin (BSA) and 1 mM DTT. To this incubation mixture, 40 μl of AlphaLISA anti-FLAG acceptor (PerkinElmer Cat. No. AL112C) and streptavidin donor (PerkinElmer Cat. No. 6760002) beads (10 μg/mL each) was added and incubation continued at RT for 60 min. Alpha (amplified luminescent proximity homogeneous assay) signal was measured on an Envision multi-label plate reader at the end of the incubation. All steps were conducted under dim fluorescent light.
These percent inhibition values were regressed against compound concentrations in the assay using four parameter logit non-linear curve fitting (XLFit, IDBS). The IC50 values were derived from the curve fitting as inflection points on the dose-response curves and are set out in Table 14 below.

| pIC50 | Compound |
| --- | --- |
| > 7.00 | 5-fluoro-N-isopropyl-N- methyl-2-(3-(2-((1- (methylsulfonyl) piperidin-4-yl)methyl) octahydrocyclopenta [c]pyrrol-5-yl)- 1H-pyrrolo[2,3-c] pyridin-1-yl) benzamide [Example 91] |
| > 7.00 | CC(C)N(C)C(=O)c1cc(F)ccc1-n1cc(C2CCCN(Cc3ccc4[nH]c(=O)[nH]c4c3)C2)c2ccncc21 (single isomer, unassigned) [Example 43B, 5-fluoro-N-isopropyl-N-methyl-2-(3-(1-((2-oxo-2,3-dihydro-1H-benzo[d]imidazol-5-yl)methyl)piperidin-3-yl)-1H-pyrrolo[2,3-c]pyridin-1-yl)benzamide] |
| ≤ 6.00 | CC(C)N(C)C(=O)c1cc(F)ccc1-n1cc(C2CCC(O)CC2)c2ccncc21 (single isomer, unassigned) [Example 53, 5-fluoro-2-(3-(4-hydroxycyclohexyl)-1H-pyrrolo[2,3-c]pyridin-1-yl)-N-isopropyl-N-methylbenzamide] |
| ≤ 6.00 | CC(C)N(C)C(=O)c1cc(F)ccc1-n1cc(C2CCC(O)CC2)c2ccncc21 (single isomer, unassigned) [Example 53A, 5-fluoro-2-(3-(4-hydroxycyclohexyl)-1H-pyrrolo[2,3-c]pyridin-1-yl)-N-isopropyl-N-methylbenzamide] |
| > 7.00 | CC(C)N(C)C(=O)c1cc(F)ccc1-n1cc(C2CCC(N3CCC(O)C3)CC2)c2ccncc21 (single isomer, unassigned) [Example 95A, 5-fluoro-2-(3-(4-(3-hydroxypyrrolidin-1-yl)cyclohexyl)-1H-pyrrolo[2,3-c]pyridin-1-yl)-N-isopropyl-N-methylbenzamide] |
| > 7.00 | CC(C)N(C)C(=O)c1cc(F)ccc1-n1cc(C2CCC(N(C)CC3CCC(NS(C)(=O)=O)CC3)CC2)c2ccncc21 (single isomer, unassigned) [Example 128A, 5-fluoro-N-isopropyl-N-methyl-2-(3-(4-(methyl((4-(methylsulfonamido)cyclohexyl)methyl)amino)cyclohexyl)-1H-pyrrolo[2,3-c]pyridin-1-yl)benzamide] |
| > 7.00 | CC(C)N(C(=O)c1cc(F)ccc1-n1cc(C2CCC(N3CCC4(CC(NS(C)(=O)=O)C4)C3)CC2)c2ccncc21)C(C)C (single isomer, unassigned) [Example 139, 5-fluoro-N,N-diisopropyl-2-(3-(4-(2-(methylsulfonamido)-6-azaspiro[3.4]octan-6-yl)cyclohexyl)-1H-pyrrolo[2,3-c]pyridin-1-yl)benzamide] |
| > 7.00 | CC(C)N(C(=O)c1cc(F)ccc1-n1cc(C2CCC(N3CCC4(CC(NS(C)(=O)=O)C4)C3)CC2)c2ccncc21)C(C)C (single isomer, unassigned) [Example 139A, 5-fluoro-N,N-diisopropyl-2-(3-(4-(2-(methylsulfonamido)-6-azaspiro[3.4]octan-6-yl)cyclohexyl)-1H-pyrrolo[2,3-c]pyridin-1-yl)benzamide] |
| > 7.00 | CC(C)N(C)C(=O)c1cc(F)ccc1-n1cc(C2CCN(C[C@H]3C[C@@H](NS(C)(=O)=O)C3)CC2)c2ccncc21 (stereo in doubt) [Example 92, 5-fluoro-N-isopropyl-N-methyl-2-(3-(1-((cis-3-(methylsulfonamido)cyclobutyl)methyl)piperidin-4-yl)-1H-pyrrolo[2,3-c]pyridin-1-yl)benzamide] |
| > 7.00 | CC(C)N(C)C(=O)c1cc(F)ccc1-n1cc(C2CCN(Cc3ccc(C(F)(F)F)cc3)CC2)c2ccncc21 [Example 11, 5-fluoro-N-isopropyl-N-methyl-2-(3-(1-(4-(trifluoromethyl)benzyl)piperidin-4-yl)-1H-pyrrolo[2,3-c]pyridin-1-yl)benzamide] |
| 6.00 to 7.00 | CC(C)N(C)C(=O)c1cc(F)ccc1-n1cc(C2CCN(Cc3ccc(S(C)(=O)=O)cc3)CC2)c2ccncc21 [Example 13, 5-fluoro-N-isopropyl-N-methyl-2-(3-(1-(4-(methylsulfonyl)benzyl)piperidin-4-yl)-1H-pyrrolo[2,3-c]pyridin-1-yl)benzamide] |
| 6.00 to 7.00 | CC(C)N(C)C(=O)c1cc(F)ccc1-n1cc(C2CCN(C)CC2)c2ccncc21 [Example 17, 5-fluoro-N-isopropyl-N-methyl-2-(3-(1-methylpiperidin-4-yl)-1H-pyrrolo[2,3-c]pyridin-1-yl)benzamide] |
| > 7.00 | CC(=O)Nc1ccc(CN2CCC(c3cn(-c4ccc(F)cc4C(=O)N(C)C(C)C)c4cnccc34)CC2)cc1 [Example 22, 2-(3-(1-(4-acetamidobenzyl)piperidin-4-yl)-1H-pyrrolo[2,3-c]pyridin-1-yl)-5-fluoro-N-isopropyl-N-methylbenzamide] |
| > 7.00 | CC(C)N(C)C(=O)c1cc(F)ccc1-n1cc(C2CCN(CCc3cccc(C#N)c3)CC2)c2ccncc21 [Example 25, 2-(3-(1-(3-cyanophenethyl)piperidin-4-yl)-1H-pyrrolo[2,3-c]pyridin-1-yl)-5-fluoro-N-isopropyl-N-methylbenzamide] |
| > 7.00 | Fc1ccc(CN2CCC(c3cn(-c4ccc(F)cc4OCC4CC4)c4cnccc34)CC2)cc1 [Example 35, 1-(2-(cyclopropylmethoxy)-4-fluorophenyl)-3-(1-(4-fluorobenzyl)piperidin-4-yl)-1H-pyrrolo[2,3-c]pyridine] |
| 6.00 to 7.00 | Cc1c(CN2CCC(c3cn(-c4ccc(Cl)cc4)c4cnccc34)CC2)ccc2[nH]c(C#N)cc12 [Example 38, 5-((4-(1-(4-chlorophenyl)-1H-pyrrolo[2,3-c]pyridin-3-yl)piperidin-1-yl)methyl)-4-methyl-1H-indole-2-carbonitrile] |
| 6.00 to 7.00 | CC(C)CCN1CCC(c2cn(-c3ccc(F)cc3)c3cnccc23)CC1 [Example 39, 1-(4-fluorophenyl)-3-(1-isopentylpiperidin-4-yl)-1H-pyrrolo[2,3-c]pyridine] |
| 6.00 to 7.00 | Fc1ccc(-n2cc(C3CCN(CCc4ccccc4)CC3)c3ccncc32)cc1 [Example 40, 1-(4-fluorophenyl)-3-(1-phenethylpiperidin-4-yl)-1H-pyrrolo[2,3-c]pyridine] |
| 6.00 to 7.00 | CC(C)N(C)C(=O)c1cc(F)ccc1-n1cc(C2CCCNCC2)c2ccncc21 (stereo not shown) [Example 41A, 2-(3-(azepan-4-yl)-1H-pyrrolo[2,3-c]pyridin-1-yl)-5-fluoro-N-isopropyl-N-methylbenzamide] |
| 6.00 to 7.00 | CC(C)N(C)C(=O)c1cc(F)ccc1-n1cc(C2CCC3(CC2)CNC3)c2ccncc21 [Example 51, 2-(3-(2-azaspiro[3.5]nonan-7-yl)-1H-pyrrolo[2,3-c]pyridin-1-yl)-5-fluoro-N-isopropyl-N-methylbenzamide] |
| 6.00 to 7.00 | CC(C)N(C)C(=O)c1cc(F)ccc1-n1cc(C2CCC3(CC2)CN(C)C3)c2ccncc21 [Example 51A, 5-fluoro-N-isopropyl-N-methyl-2-(3-(2-methyl-2-azaspiro[3.5]nonan-7-yl)-1H-pyrrolo[2,3-c]pyridin-1-yl)benzamide] |
| 6.00 to 7.00 | CC(C)N(C)C(=O)c1cc(F)ccc1-n1cc(-c2ccc3c(c2)CCN(C)C3)c2ccncc21 [Example 52, 5-fluoro-N-isopropyl-N-methyl-2-(3-(2-methyl-1,2,3,4-tetrahydroisoquinolin-6-yl)-1H-pyrrolo[2,3-c]pyridin-1-yl)benzamide] |
| 6.00 to 7.00 | CC(C)N(C)C(=O)c1cc(F)ccc1-n1cc(C2CCC(Oc3ccccc3)CC2)c2ccncc21 (stereo not shown) [Example 59, 5-fluoro-N-isopropyl-N-methyl-2-(3-(4-phenoxycyclohexyl)-1H-pyrrolo[2,3-c]pyridin-1-yl)benzamide] |
| > 7.00 | Cc1c(CN2CCC(c3cn(-c4ccc(F)cc4C(=O)N(C)C)c4cncnc34)CC2)ccc2[nH]c(C#N)cc12 [Example 64, 2-(7-(1-((2-cyano-4-methyl-1H-indol-5-yl)methyl)piperidin-4-yl)-5H-pyrrolo[3,2-d]pyrimidin-5-yl)-5-fluoro-N,N-dimethylbenzamide] |
| ≤ 6.00 | Fc1ccc(-n2cc(C3CCN(CC4CCOCC4)CC3)c3ncncc32)cc1 [Example 65, 5-(4-fluorophenyl)-7-(1-((tetrahydro-2H-pyran-4-yl)methyl)piperidin-4-yl)-5H-pyrrolo[3,2-d]pyrimidine] |

Source: patent publication US10899758B2, “Inhibitors of the menin-MLL interaction” (Vitae Pharmaceuticals, LLC, priority 2016, dated 2021)
